Assay results: US8841233B2, “Herbicidal compositions comprising 4-amino-3-chloro-5-fluoro-6-(4-chloro-2-fluoro-3-methoxyphenyl) pyridine-2-carboxylic acid or a derivative thereof and 4-hydroxyphenyl-pyruvate dioxygenase (HPPD) inhibitors” (Dow Agrosciences LLC, priority 2012, dated 2014)

Assays:
[1] = test system: CYPIR; assay: Post-emergence foliar-applied weed control, greenhouse (Example I); format: in vivo, Cyperus iria L.
Description: (§1) Evaluation of Post-emergence Foliar-Applied Herbicidal Mixtures for Weed Control in Direct Seeded Rice
(§2) Seeds or nutlets of the desired test plant species were planted in a soil matrix prepared by mixing a loam or sandy loam soil (e.g., 28.6 percent silt, 18.8 percent clay, and 52.6 percent sand, with a pH of about 5.8 and an organic matter content of about 1.8 percent) and calcareous grit in an 80 to 20 ratio. The soil matrix was contained in plastic pots with a volume of 1 quart and a surface area of 83.6 square centimeters (cm^2). When required to ensure good germination and healthy plants, a fungicide treatment and/or other chemical or physical treatment was applied. The plants were grown for 8-22 days in a greenhouse with an approximate 14 h photoperiod which was maintained at about 29° C. during the day and 26° C. during the night. Nutrients (Peters Excel® 15-5-15 5-Ca 2-Mg and iron chelate) were applied in the irrigation solution as needed and water was added on a regular basis. Supplemental lighting was provided with overhead metal halide 1000-Watt lamps as necessary. The plants were employed for testing when they reached the first through fourth true leaf stage.
(§3) Treatments consisted of the acid or esters of 4-amino-3-chloro-5-fluoro-6-(4-chloro-2-fluoro-3-methoxy-phenyl)pyridine-2-carboxylic acid (Compound A), each formulated as an SC (suspension concentrate), and various herbicidal components alone and in combination. Forms of Compound A were applied on an acid equivalent basis.
(§4) Other herbicidal components were applied on an active ingredient basis and included 4-hydroxyphenyl pyruvate dioxygenase (HPPD)-inhibiting herbicides mesotrione formulated as Callisto®, sulcotrione formulated as Mikado®, pyrazolynate formulated as Sunbird® 10% GR, and benzobicyclon formulated as Benzobicyclon 3.5%.
(§5) Treatment requirements were calculated based upon the rates being tested, the concentration of active ingredient or acid equivalent in the formulation, and a 12 mL application volume at a rate of 187 L/ha.
(§6) For treatments comprised of formulated compounds, measured amounts of compounds were placed individually in 25 mL glass vials and diluted in a volume of 1.25% (v/v) Agri-Dex® crop oil concentrated to obtain 12× stock solutions. […] Application solutions were prepared by adding an appropriate amount of each stock solution (e.g., 1 mL) and diluted to the appropriate final concentrations with the addition of 10 mL of an aqueous mixture of 1.25% (v/v) crop oil concentrate so that the final spray solutions contained 1.25+/−0.05% (v/v) crop oil concentrate.
(§7) For treatments comprised of formulated and technical compounds, weighed amounts of the technical materials were placed individually in 25 mL glass vials and dissolved in a volume of 97:3 v/v acetone/DMSO to obtain 12× stock solutions, and measured amounts of the formulated compounds were placed individually in 25 mL glass vials and diluted in a volume of 1.5% (v/v) crop oil concentrate or water to obtain 12× stock solutions. […] Application solutions were prepared by adding an appropriate amount of each stock solution (e.g., 1 mL) and diluted to the appropriate final concentrations with the addition of an appropriate amount of an aqueous mixture of 1.5% (v/v) crop oil concentrate so that the final spray solutions contained 1.25% (v/v) crop oil concentrate. As required, additional water and/or 97:3 v/v acetone/DMSO was added to individual application solutions so that the final acetone and DMSO concentrations of the application solutions being compared were 8.1% and 0.25%, respectively.
(§8) All stock solutions and applications solutions were visually inspected for compound compatibility prior to application. Spray solutions were applied to the plant material with an overhead Mandel track sprayer equipped with a 8002E nozzles calibrated to deliver 187 L/ha over an application area of 0.503 m^2 at a spray height of 18 to 20 inches (46 to 50 cm) above average plant canopy height. […]

[2] = test system: ECHCO; assay: as above; format: in vivo, Echinochloa colona (L.) Link
Description: as §1, §2, §3, §4, §5, §6, §7, §8

Row | Structure (SMILES) | Visual Weed Control (%) - 22 DAA CYPIR Obs ([1]; 4.38 gae/ha) | Visual Weed Control (%) - 22 DAA CYPIR Obs ([1]; 8.75 gae/ha) | Visual Weed Control (%) - 20 DAA ECHCO Obs ([2]; 4.38 gae/ha) | Visual Weed Control (%) - 22 DAA ECHCO Obs ([2]; 4.38 gae/ha) | Visual Weed Control (%) - 22 DAA ECHCO Obs ([2]; 8.75 gae/ha) | Visual Weed Control (%) - 20 DAA CYPIR Obs ([1]; 4.38 gae/ha) | Visual Weed Control (%) - 20 DAA CYPIR Obs ([1]; 8.75 gae/ha) | Visual Weed Control (%) - 20 DAA CYPIR Obs ([1]; 17.5 gae/ha) | Visual Weed Control (%) - 22 DAA ECHCO Obs ([2]; 5.3 gae/ha) | Visual Weed Control (%) - 20 DAA ECHCO Obs ([2]; 8.75 gae/ha) | Visual Weed Control (%) - 22 DAA ECHCO Obs ([2]; 10.6 gae/ha) | Visual Weed Control (%) - 20 DAA ECHCO Obs ([2]; 17.5 gae/ha)
1 | COc1c(Cl)ccc(-c2nc(C(=O)OCc3ccccc3)c(Cl)c(N)c2F)c1F [Compound A Benzyl Ester, benzyl ester of 4-amino-3-chloro-5-fluoro-6-(4-chloro-2-fluoro-3-methoxy-phenyl)pyridine-2-carboxylic acid] | 10% | 65% | 40% | 30% | 55% | – | – | – | – | – | – | –
2 | COc1c(Cl)ccc(-c2nc(C(=O)O)c(Cl)c(N)c2F)c1F [Compound A Acid, 4-amino-3-chloro-6-(4-chloro-2-fluoro-3-methoxyphenyl)-5-fluoropyridine-2-carboxylic acid] | – | – | 40% | – | – | 75% | 90% | 90% | 65% | 60% | 65% | 85%
